Source: patent US20040171680A1, “Treating Syndrome X with substituted tetralins and indanes” (priority 2002, published 2004)
Read-outs that look alike come from different tables or passages of the source.

Columns and labels:
PPARα = molecular target: T1, PPARα (Rattus norvegicus, UniProt P37230); test: HD bDNA Assay (HD gene induction); type: cell-based; conditions: in section F; target not named there, values match the PPARα column; read-out: EC50
T1 construct: H4IIE rat hepatoma cell line was obtained from ATCC; host or cells: H4IIE rat hepatoma cells
T1 sequence (P37230 1-468): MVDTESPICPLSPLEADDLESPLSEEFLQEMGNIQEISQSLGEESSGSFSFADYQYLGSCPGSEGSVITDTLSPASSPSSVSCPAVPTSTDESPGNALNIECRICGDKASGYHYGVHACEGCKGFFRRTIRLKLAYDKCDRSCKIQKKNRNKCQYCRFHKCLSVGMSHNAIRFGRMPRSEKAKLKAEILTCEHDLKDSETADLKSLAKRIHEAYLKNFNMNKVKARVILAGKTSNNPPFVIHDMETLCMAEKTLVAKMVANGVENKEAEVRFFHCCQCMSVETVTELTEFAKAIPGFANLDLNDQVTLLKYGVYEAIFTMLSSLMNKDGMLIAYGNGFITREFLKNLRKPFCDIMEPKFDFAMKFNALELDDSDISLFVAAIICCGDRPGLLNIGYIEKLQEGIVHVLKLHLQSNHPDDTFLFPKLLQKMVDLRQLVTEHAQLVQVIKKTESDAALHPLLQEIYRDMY
Summary of the method: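 H4IIE rat hepatoma cells (~100,000/well) treated 24 hours at 37° C in low-serum medium (5% charcoal/dextran-treated calf serum) with compounds. HD mRNA quantified by branched DNA luminescence assay; EC50's from sigmoidal non-linear regression.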

PPARδ = molecular target: T2, PPARδ (Homo sapiens, UniProt Q03181); test: Transfection Assay for PPARδ Receptors (PPAR-Gal4 / Gal4-Luciferase reporter in HEK293 cells); type: cell-based; conditions: fold induction; PPARδ standard: FI = 36.1
T2 construct: a Gal4-Luciferase reporter is co-transfected
T2 sequence (Q03181 171-441 limits assumed): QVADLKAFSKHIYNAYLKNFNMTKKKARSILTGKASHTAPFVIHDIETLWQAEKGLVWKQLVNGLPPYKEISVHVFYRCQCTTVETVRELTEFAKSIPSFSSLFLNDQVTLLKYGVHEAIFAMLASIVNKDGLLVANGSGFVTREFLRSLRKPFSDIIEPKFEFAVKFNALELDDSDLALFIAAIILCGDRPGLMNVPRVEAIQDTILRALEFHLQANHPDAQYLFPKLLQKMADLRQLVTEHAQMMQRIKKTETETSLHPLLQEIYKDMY
Summary of the method: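 HEK293 cells co-transfected with PPAR-Gal4 receptor and Gal4-luciferase reporter, then moved into 5% charcoal-treated FBS medium. Compounds applied for 24 h at 37 °C, 5% CO2; luciferase activity read with Steady-Glo.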

PPARγ = molecular target: T3, PPARγ (Homo sapiens, UniProt P37231); test: aP2 Assay for PPAR gamma Agonists (bDNA aP2 mRNA in preadipocytes); type: cell-based; conditions: fold induction; PPARγ standard: FI = 70.3
T3 construct: Following the challenge of the preadipocytes, cells may be lysed with lysis buffer; endogenous in cells; host or cells: preadipocytes
T3 sequence (P37231 1-505): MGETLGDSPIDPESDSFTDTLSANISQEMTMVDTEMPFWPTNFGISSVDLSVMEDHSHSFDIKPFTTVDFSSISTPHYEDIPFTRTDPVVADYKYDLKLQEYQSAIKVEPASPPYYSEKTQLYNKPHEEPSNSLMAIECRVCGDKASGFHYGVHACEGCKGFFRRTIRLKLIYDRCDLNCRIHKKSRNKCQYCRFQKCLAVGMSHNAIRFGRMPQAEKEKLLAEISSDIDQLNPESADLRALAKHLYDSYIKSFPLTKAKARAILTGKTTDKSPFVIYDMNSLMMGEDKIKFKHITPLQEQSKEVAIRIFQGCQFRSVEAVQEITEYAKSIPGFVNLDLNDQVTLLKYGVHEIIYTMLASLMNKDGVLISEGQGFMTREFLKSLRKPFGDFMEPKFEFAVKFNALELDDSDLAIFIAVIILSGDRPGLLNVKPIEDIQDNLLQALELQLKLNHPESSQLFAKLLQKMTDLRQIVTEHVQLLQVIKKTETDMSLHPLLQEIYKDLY
From the text: aP2 Assay for PPAR gamma Agonists
The procedure is described in detail in Burris et al., Molecular Endocrinology, 1999, 13:410, which is hereby incorporated by reference in its entirety, and aP2 assay results of agonist intrinsic activity may be presented as fold increase over vehicle in induction of aP2 mRNA production.
Twenty-four hours after the initial seeding of the 96-well plates by hand (around 20,000/well), the differentiation assay may be initiated. Medium may be removed and replaced with […] of differentiation medium containing vehicle (DMSO) or test compounds. Cells may be returned to incubator for 24 hours culture. At the termination of the challenge, medium may be removed and 100 ul of lysis buffer may be added to initiate the bDNA aP2 mRNA assay. The branched DNA assay may be performed according to the manufacturer's protocol (Bayer Diagnostics; Emeryville, Calif.). Result may be expressed as the fold increase of aP2 mRNA production activated over vehicle controls. EC50's and Emax may be determined by non-linear regression with a sigmoidal fit curve.
Following the challenge of the preadipocytes, cells may be lysed with lysis buffer (Bayer Diagnostics) containing the aP2 oligonucleotides. After a 15 minute incubation at 53° C. or 30 minutes at 37° C. incubator, 70 ul of the lysis buffer from each well may be added to a corresponding capture well (preincubated with 70 ul of blocking buffer (Bayer Diagnostics)). The capture plate may be incubated overnight at 53° C. in a plate incubator (Bayer Diagnostics). After this incubation, the bDNA and labeled probes may be annealed as directed by the manufacturer. Following a 30-minute incubation with the luminescent alkaline phosphatase substrate, dioxitane, the luminescence may be quantitated in a Dynex MLX microtiter plate luminometer. Oligonucleotide probes designed to anneal to the aP2 mRNA and function in the bDNA mRNA detection system are designed with ProbeDesigner software (Bayer Diagnostics). This software package analyzes a target sequence of interest with a series of algorithms in order to determine which regions of the sequence can perform as locations for capture, label, or spacer probe annealing. The sequences of the oligonucleotides are as follows: […]

db/db mice = test: Oral dosing in female db/db mice; type: in vivo; conditions: Mus musculus, 1.0 mpk, % change compared to vehicle
Description: The compound was prepared as suspensions in 0.5% hydroxypropylmethylcellulose (Dow Chemical, Midland, Mich.). The dosing volume was 10 mL/kg of body weight. […] Body weight was measured in the mornings on Day 1, prior to dosing, and on Day 12 before bleeding. 18-24 hours after the final dose for each group, the mice were anesthetized with CO2/O2 (70:30) and bled by retro-orbital sinus puncture into micro-tubes containing clog activator and then put in ice. The serum samples were prepared by centrifugation. Serum glucose and triglycerides were determined by using COBAS Mira Plus blood chemistry analyzer (Roche Diagnostics, N.J.). Serum insulin was measured by using ALPCO insulin ELISA kit.
Statistical analysis was performed using the program Prism (Graphpad, Monrovia, Calif.) and performing one-way ANOVA with a Dunnet's multiple comparison test.

[1] = Comparison of (S) and (R) isomer activity (test not stated); conditions: chiral center on C-2 of the indane ring
[2] = 120 h, 5 day oral dosing, read-out: Δ BW
[3] = 120 h, 5 day oral dosing, read-out: Δ Plasma Glucose
[4] = 120 h, 5 day oral dosing, read-out: Δ Plasma Insulin
[5] = 120 h, 5 day oral dosing, read-out: Δ Plasma TG

## CCCCCN(C(=O)Nc1ccc(OC(F)(F)F)cc1)C1Cc2ccc(SC(C)(C)C(=O)O)cc2C1 (stereo not shown) [Example 8, 2-Methyl-2-{2-[1-pentyl-3-(4-trifluoromethoxyphenyl)ureido]indan-5-ylsulfanyl}-2-methylpropionic acid]
PPARα
  EC50: 73 nM
PPARδ
  PPARδ FI: 5.9
PPARγ
  PPARγ FI: 1.9
db/db mice; [2]
  change in vivo at 1 mg/kg: -2%
db/db mice; [3]
  change in vivo at 1 mg/kg: -28%
db/db mice; [4]
  change in vivo at 1 mg/kg: -38%
db/db mice; [5]
  change in vivo at 1 mg/kg: -27%

## CCCCCN(C(=O)Nc1ccc(N(C)C)cc1)C1Cc2ccc(SC(C)(C)C(=O)O)cc2C1 (stereo not shown) [Example 9, 2-{2-[3-(4-Dimethylaminophenyl)-1-pentylureido]indan-5-ylsulfanyl}-2-methylpropionic acid]
PPARα
  EC50: 131 nM
PPARδ
  PPARδ FI: 1.0
PPARγ
  PPARγ FI: 2.9
db/db mice; [2]
  change in vivo at 1 mg/kg: 0.05%
db/db mice; [3]
  change in vivo at 1 mg/kg: -13%
db/db mice; [4]
  change in vivo at 1 mg/kg: -40%
db/db mice; [5]
  change in vivo at 1 mg/kg: -6%

## CCN(C(=O)Nc1ccc(OC(F)(F)F)cc1)[C@H]1Cc2ccc(SC(C)(C)C(=O)O)cc2C1 [Example 3, (S)-2-{2-[1-Ethyl-3-(4-trifluoromethoxyphenyl)ureido]indan-5-ylsulfanyl}-2-methylpropionic acid]
[1]
  activity of the (S) isomer compared with the (R) isomer: the (S) isomer is more active than the (R) isomer
db/db mice; [3]
  change in vivo at 1 mg/kg: -66%
db/db mice; [4]
  change in vivo at 1 mg/kg: -69%
db/db mice; [5]
  change in vivo at 1 mg/kg: -66%
db/db mice; 264 h, 11 day oral dosing, read-out: Δ BW
  change in vivo at 1 mg/kg: -136%

## CCCCCN(C(=O)Nc1ccc(SC(F)(F)F)cc1)C1Cc2ccc(SC(C)(C)C(=O)O)cc2C1 (stereo not shown) [Example 5, 2-Methyl-2-{2-[1-pentyl-3-(4-trifluoromethylsulfanylphenyl)ureido]indan-5-ylsulfanyl}propionic acid]
PPARα
  EC50: 53 nM
PPARδ
  PPARδ FI: 2.5
PPARγ
  PPARγ FI: 4.0
db/db mice; [2]
  change in vivo at 1 mg/kg: 56%
db/db mice; [3]
  change in vivo at 1 mg/kg: -31%
db/db mice; [4]
  change in vivo at 1 mg/kg: -43%
db/db mice; [5]
  change in vivo at 1 mg/kg: -19%

## CCN(C(=O)Nc1ccc(OC(F)(F)F)cc1)C1Cc2ccc(SC(C)(C)C(=O)O)cc2C1 (stereo not shown) [Example 2, 2-{2-[1-Ethyl-3-(4-trifluoromethoxyphenyl)ureido]indan-5-ylsulfanyl}-2-methylpropionic acid]
PPARα
  EC50: 27 nM
PPARδ
  PPARδ FI: 4.2
PPARγ
  PPARγ FI: 0.24
db/db mice; [2]
  change in vivo at 1 mg/kg: -59%
db/db mice; 264 h, 11 day oral dosing, read-out: Δ Plasma Glucose
  change in vivo at 1 mg/kg: -60%
db/db mice; 264 h, 11 day oral dosing, read-out: Δ Plasma Insulin
  change in vivo at 1 mg/kg: -53%
db/db mice; 264 h, 11 day oral dosing, read-out: Δ Plasma TG
  change in vivo at 1 mg/kg: -56%

## CCN(C(=O)Nc1ccc(N(C)C)cc1)C1Cc2ccc(SC(C)(C)C(=O)O)cc2C1 (stereo not shown) [Example 7, 2-{2-[3-(4-Dimethylaminophenyl)-1-ethylureido]indan-5-ylsulfanyl}-2-methylpropionic acid]
PPARα
  EC50: 75 nM
PPARδ
  PPARδ FI: 0.8
PPARγ
  PPARγ FI: 0
db/db mice; [2]
  change in vivo at 1 mg/kg: -27%
db/db mice; [3]
  change in vivo at 1 mg/kg: -44%
db/db mice; [4]
  change in vivo at 1 mg/kg: -40%
db/db mice; [5]
  change in vivo at 1 mg/kg: -63%
